# Test results as given in PubChem BioAssay (NCI).
#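 Values below derive from 48-hour exposures of cells grown in 96-well plates, with endpoints linearly interpolated between the two concentrations bracketing the appropriate inhibition level. GI50 = concentration required for 50% inhibition of growth. The concentration for full growth arrest is given as TGI.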
# Columns and labels:
# Assay in all cases: NCI-60 cell line screen, 48 h
# [1] = tested on: COLO 205 colon
# [2] = tested on: EKVX NSCLC
# [3] = tested on: CAKI-1 renal
# [4] = tested on: SF-539 CNS
# [5] = tested on: PC-3 prostate
# [6] = tested on: NCI/ADR-RES ovarian
# [7] = tested on: T-47D breast
# [8] = tested on: IGROV1 ovarian
# [9] = tested on: A498 renal
# [10] = tested on: SR leukemia
# [11] = tested on: SF-295 CNS
# [12] = tested on: MDA-MB-435
# [13] = tested on: SK-MEL-28 melanoma
# [14] = tested on: HS 578T breast
# [15] = tested on: UO-31 renal
# [16] = tested on: SW-620 colon
# [17] = tested on: NCI-H23 lung
# [18] = tested on: MALME-3M melanoma
# [19] = tested on: SK-OV-3 ovarian
# [20] = tested on: RPMI-8226 leukemia
# [21] = tested on: OVCAR-3 ovarian
# [22] = tested on: HOP-92 NSCLC
# [23] = tested on: MDA-MB-468 breast
# [24] = tested on: TK-10 renal
# [25] = tested on: HOP-62 NSCLC
# [26] = tested on: NCI-H226 lung
# [27] = tested on: CCRF-CEM leukemia
# [28] = tested on: HCC-2998 colon
# [29] = tested on: MOLT-4 leukemia
# [30] = tested on: HCT-15 colon
# [31] = tested on: SNB-75 CNS
# [32] = tested on: HT29 colon
# [33] = tested on: DU-145 prostate
# [34] = tested on: OVCAR-8 ovarian
# [35] = tested on: SK-MEL-2 melanoma
# [36] = tested on: 786-0 renal
# [37] = tested on: U251 CNS
# [38] = tested on: LOX IMVI melanoma
# [39] = tested on: OVCAR-4 ovarian
# [40] = tested on: SNB-19 CNS
# [41] = tested on: UACC-257 melanoma
# [42] = tested on: ACHN renal
# [43] = tested on: HL-60(TB) leukemia
# [44] = tested on: NCI-H460 lung
# [45] = tested on: HCT-116 colon
# [46] = tested on: NCI-H522 lung
# [47] = tested on: SF-268 CNS
# [48] = tested on: K-562 leukemia
# [49] = tested on: UACC-62 melanoma
# [50] = tested on: SK-MEL-5 melanoma
# [51] = tested on: M14 melanoma
# [52] = tested on: MDA-MB-231 breast
# [53] = tested on: SN12C renal
# [54] = tested on: A549 NSCLC
# [55] = tested on: BT-549 breast
# [56] = tested on: OVCAR-5 ovarian
# [57] = tested on: KM12 colon
# [58] = tested on: RXF 393 renal
# [59] = tested on: MCF7 breast
compound,measurement,setting,value
CN1CCN(CCS(=O)(=O)Nc2cc(-c3ccc4ncnc(Nc5ccc(F)c(Cl)c5)c4c3)cnc2Cl)CC1,GI50,[1],2.74 µM
same,TGI,[1],10.4 µM
same,GI50,[2],1.23 µM
same,TGI,[2],6.36 µM
same,GI50,[3],1.33 µM
same,TGI,[3],19 µM
same,GI50,[4],1.82 µM
same,TGI,[4],6.8 µM
same,GI50,[5],2.09 µM
same,TGI,[5],19.6 µM
same,GI50,[6],66.6 µM
same,TGI,[6],> 100 µM
same,GI50,[7],0.221 µM
same,TGI,[7],3.12 µM
same,GI50,[8],0.686 µM
same,TGI,[8],2.93 µM
same,GI50,[9],1.03 µM
same,TGI,[9],4.4 µM
same,GI50,[10],2.06 µM
same,TGI,[10],7.68 µM
same,GI50,[11],3.01 µM
same,TGI,[11],65.1 µM
same,GI50,[12],3.11 µM
same,TGI,[12],16 µM
same,GI50,[13],2.39 µM
same,TGI,[13],37.4 µM
same,GI50,[14],0.32 µM
same,TGI,[14],3.75 µM
same,GI50,[15],2.07 µM
same,TGI,[15],13.4 µM
same,GI50,[16],1.95 µM
same,TGI,[16],38.6 µM
same,GI50,[17],2.8 µM
same,TGI,[17],15.1 µM
same,GI50,[18],0.726 µM
same,TGI,[18],5.76 µM
same,GI50,[19],1.59 µM
same,TGI,[19],7.28 µM
same,GI50,[20],13.5 µM
same,TGI,[20],38 µM
same,GI50,[21],0.596 µM
same,TGI,[21],2.99 µM
same,GI50,[22],0.675 µM
same,TGI,[22],7.13 µM
same,GI50,[23],0.205 µM
same,TGI,[23],0.902 µM
same,GI50,[24],1.83 µM
same,TGI,[24],13.2 µM
same,GI50,[25],2.04 µM
same,TGI,[25],38.4 µM
same,GI50,[26],1.96 µM
same,TGI,[26],> 100 µM
same,GI50,[27],0.579 µM
same,TGI,[27],80.4 µM
same,GI50,[28],1.6 µM
same,TGI,[28],6.2 µM
same,GI50,[29],2.5 µM
same,TGI,[29],7.08 µM
same,GI50,[30],4.38 µM
same,TGI,[30],43.6 µM
same,GI50,[31],0.458 µM
same,TGI,[31],11 µM
same,GI50,[32],3.87 µM
same,TGI,[32],21.5 µM
same,GI50,[33],3.23 µM
same,TGI,[33],> 100 µM
same,GI50,[34],3.73 µM
same,TGI,[34],23.1 µM
same,GI50,[35],2.32 µM
same,TGI,[35],7.79 µM
same,GI50,[36],1.84 µM
same,TGI,[36],> 100 µM
same,GI50,[37],3.12 µM
same,TGI,[37],> 100 µM
same,GI50,[38],1.17 µM
same,TGI,[38],2.92 µM
same,GI50,[39],5.45 µM
same,TGI,[39],> 100 µM
same,GI50,[40],1.97 µM
same,TGI,[40],> 100 µM
same,GI50,[41],3.02 µM
same,TGI,[41],17.2 µM
same,GI50,[42],3.67 µM
same,TGI,[42],> 100 µM
same,GI50,[43],0.658 µM
same,TGI,[43],23.7 µM
same,GI50,[44],5.85 µM
same,TGI,[44],> 100 µM
same,GI50,[45],4.18 µM
same,TGI,[45],18.5 µM
same,GI50,[46],1.96 µM
same,TGI,[46],11.3 µM
same,GI50,[47],1.8 µM
same,TGI,[47],37.7 µM
same,GI50,[48],4.5 µM
same,TGI,[48],> 100 µM
same,GI50,[49],1.18 µM
same,TGI,[49],9.65 µM
same,GI50,[50],1.61 µM
same,TGI,[50],4.34 µM
same,GI50,[51],3.34 µM
same,TGI,[51],20.5 µM
same,GI50,[52],1.74 µM
same,TGI,[52],4.13 µM
same,GI50,[53],3.25 µM
same,TGI,[53],> 100 µM
same,GI50,[54],11.1 µM
same,TGI,[54],49.9 µM
same,GI50,[55],1.06 µM
same,TGI,[55],4.28 µM
same,GI50,[56],2.56 µM
same,TGI,[56],27 µM
same,GI50,[57],8.23 µM
same,TGI,[57],31.5 µM
same,GI50,[58],0.784 µM
same,TGI,[58],3.85 µM
same,GI50,[59],1.16 µM
same,TGI,[59],15.3 µM
